Test results published in patent US11986532B2 (Arvinas Operations, Inc., priority 2021, dated 2024).
Like-named read-outs stand apart in the source and are kept apart here.

Target: T1, BCL6 (Homo sapiens, UniProt P41182)
T1 construct: endogenous in cells; host or cells: T47D breast cancer epithelial cells
Test: Immunofluorescence protocol for high content imaging of BCL6 (degradation) in T47D cells, 3 days compound treatment
Assay type: cell-based
Settings: for Dmax: read-out: Mean Dmax (%)** category; for DC50: read-out: Mean DC50 (nM)* category
Method in brief: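 For degradation, compound series (3-fold, 11 points, top 0.1 or 1 μM final) were added to adherent T47D cultures for 3 days. BCL6 immunostaining used a rabbit antibody at 1:300 and an Alexa-488 secondary, with imaging at 10× magnification.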

[1] = T47D cells, 3 days compound treatment

Row | DC50 [1] [nM] | Dmax [1] [%] | Structure (SMILES) | Dmax (T47D) [%] | DC50 [nM]
1 |  |  | CNC(=O)COc1cc2cc(Nc3nc(N4CCC(O[C@H]5C[C@H](N6CC[C@@H](c7ccc8c(c7F)CN([C@@H]7CCC(=O)NC7=O)C8=O)C(C)(C)C6)C5)CC4)ncc3Cl)ccc2n(C(C)C)c1=O [Compound 396, 2-({6-[(5-chloro-2-{4-[(1r,3r)-3-[(4R)-4-{2-[(3R)-2,6-dioxopiperidin-3-yl]-4-fluoro-1-oxo-2,3-dihydro-1H-isoindol-5-yl}-3,3-dimethylpiperidin-1-yl]cyclobutoxy]piperidin-1-yl}pyrimidin-4-yl)amino]-2-oxo-1-(propan-2-yl)-1,2-dihydroquinolin-3-yl}oxy)-N-methylacetamide] | ≥ 70 | < 10
2 |  |  | CNC(=O)COc1cc2cc(Nc3nc(N4CCC(CN5CCC6(CC5)CCN6c5cccc6c5CN(C5CCC(=O)NC5=O)C6=O)CC4)ncc3Cl)ccc2n(C(C)C)c1=O (stereo not shown) [Compound 334, 2-{[6-({5-chloro-2-[4-({1-[2-(2,6-dioxopiperidin-3-yl)-1-oxo-2,3-dihydro-1H-isoindol-4-yl]-1,7-diazaspiro[3.5]nonan-7-yl}methyl)piperidin-1-yl]pyrimidin-4-yl}amino)-2-oxo-1-(propan-2-yl)-1,2-dihydroquinolin-3-yl]oxy}-N-methylacetamide] | 50 to 70 | < 10
3 |  |  | CNC(=O)COc1cc2cc(Nc3nc(N4CCC(O[C@H]5C[C@H](N6CC7(CCN(c8ccc9c(c8)C(=O)N(C8CCC(=O)NC8=O)C9=O)CC7)C6)C5)CC4)ncc3Cl)ccc2n(C(C)C)c1=O (stereo partly shown) [Compound 365, 2-({6-[(5-chloro-2-{4-[(1r,3r)-3-{7-[2-(2,6-dioxopiperidin-3-yl)-1,3-dioxo-2,3-dihydro-1H-isoindol-5-yl]-2,7-diazaspiro [3.5]nonan-2-yl}cyclobutoxy]piperidin-1-yl}pyrimidin-4-yl)amino]-2-oxo-1-(propan-2-yl)-1,2-dihydroquinolin-3-yl}oxy)-N-methylacetamide] | 50 to 70 | < 10
4 | < 10 | 50 to 70 | CNC(=O)COc1cc2cc(Nc3nc(N4CCN(C(C)(C)C5CCN(c6ccc7c(c6F)CN(C6CCC(=O)NC6=O)C7=O)CC5)CC4)ncc3Cl)ccc2n(C(C)C)c1=O (stereo not shown) [Compound 89, 2-{[6-({5-chloro-2-[4-(2-{1-[2-(2,6-dioxopiperidin-3-yl)-4-fluoro-1-oxo-2,3-dihydro-1H-isoindol-5-yl]piperidin-4-yl}propan-2-yl)piperazin-1-yl]pyrimidin-4-yl}amino)-2-oxo-1-(propan-2-yl)-1,2-dihydroquinolin-3-yl]oxy}-N-methylacetamide] |  | 
5 | ≥ 100 |  | CNC(=O)COc1cc2cc(Nc3nc(N4CCOC5(CN(CCC6CCN(c7cccc8c7C(=O)N(C7CCC(=O)NC7=O)C8=O)CC6)C5)C4)ncc3Cl)ccc2n(C(C)C)c1=O (stereo not shown) [Compound 16] |  | 
6 |  |  | CNC(=O)COc1cc2cc(Nc3nc(N4CCC(O[C@H]5C[C@H](N6CCC(c7ccc8c(c7F)[C@@H](C)N([C@H]7CCC(=O)NC7=O)C8=O)CC6)C5)CC4)ncc3Cl)ccc2n(C(C)C)c1=O [Compound 288, 2-({6-[(5-chloro-2-{4-[(1r,3r)-3-{4-[(3R)-2-[(3S)-2,6-dioxopiperidin-3-yl]-4-fluoro-3-methyl-1-oxo-2,3-dihydro-1H-isoindol-5-yl]piperidin-1-yl}cyclobutoxy]piperidin-1-yl}pyrimidin-4-yl)amino]-2-oxo-1-(propan-2-yl)-1,2-dihydroquinolin-3-yl}oxy)-N-methylacetamide] | < 50 | 10 to 50
7 | 10 to 50 | 50 to 70 | CNC(=O)COc1cc2cc(Nc3nc(N4CCC(O[C@H]5CC[C@H](Oc6ccc7c(c6)C(=O)N(C6CCC(=O)NC6=O)C7=O)CC5)CC4)ncc3Cl)ccc2n(C(C)C)c1=O (stereo partly shown) [Compound 30, 2-[(6-{[5-chloro-2-(4-{[(1r,4r)-4-{[2-(2,6-dioxopiperidin-3-yl)-1,3-dioxo-2,3-dihydro-1H-isoindol-5-yl]oxy}cyclohexyl]oxy}piperidin-1-yl)pyrimidin-4-yl]amino}-2-oxo-1-(propan-2-yl)-1,2-dihydroquinolin-3-yl)oxy]-N-methylacetamide] |  | 
8 |  |  | CNC(=O)COc1cc2cc(Nc3nc(N4CCC(O[C@H]5C[C@H](N6CC7(CCN(c8ccc9c(c8F)CN(C8CCC(=O)NC8=O)C9=O)C7)C6)C5)CC4)ncc3Cl)ccc2n(C(C)C)c1=O (stereo partly shown) [Compound 400, 2-({6-[(5-chloro-2-{4-[(1r,3r)-3-{6-[2-(2,6-dioxopiperidin-3-yl)-4-fluoro-1-oxo-2,3-dihydro-1H-isoindol-5-yl]-2,6-diazaspiro[3.4]octan-2-yl}cyclobutoxy]piperidin-1-yl}pyrimidin-4-yl)amino]-2-oxo-1-(propan-2-yl)-1,2-dihydroquinolin-3-yl}oxy)-N-methylacetamide] | ≥ 70 | < 10
9 |  |  | CNC(=O)COc1cc2cc(Nc3nc(N4CCC(O[C@H]5C[C@H](N6CC7CCC(C6)N7c6ccc7c(c6)CN(C6CCC(=O)NC6=O)C7=O)C5)CC4)ncc3Cl)ccc2n(C(C)C)c1=O (stereo partly shown) [Compound 371, 2-({6-[(5-chloro-2-{4-[(1r,3r)-3-{8-[2-(2,6-dioxopiperidin-3-yl)-1-oxo-2,3-dihydro-1H-isoindol-5-yl]-3,8-diazabicyclo[3.2.1]octan-3-yl}cyclobutoxy]piperidin-1-yl}pyrimidin-4-yl)amino]-2-oxo-1-(propan-2-yl)-1,2-dihydroquinolin-3-yl}oxy)-N-methylacetamide] | < 50 | < 10
10 |  |  | CNC(=O)COc1cc2cc(Nc3nc(N4CCC(OC5CCC6(CC5)CN(c5ccc7c(c5Cl)CN(C5CCC(=O)NC5=O)C7=O)C6)CC4)ncc3Cl)ccc2n(C(C)C)c1=O (stereo not shown) [Compound 383, 2-{[6-({5-chloro-2-[4-({2-[4-chloro-2-(2,6-dioxopiperidin-3-yl)-1-oxo-2,3-dihydro-1H-isoindol-5-yl]-2-azaspiro[3.5]nonan-7-yl}oxy)piperidin-1-yl]pyrimidin-4-yl}amino)-2-oxo-1-(propan-2-yl)-1,2-dihydroquinolin-3-yl]oxy}-N-methylacetamide] | ≥ 70 | < 10
11 | 10 to 50 | 50 to 70 | CNC(=O)COc1cc2cc(Nc3nc(N4CCCC4)ncc3Cl)ccc2n(CCOc2ccc3c(c2)C(=O)N(C2CCC(=O)NC2=O)C3=O)c1=O (stereo not shown) [Compound 32, 2-[(6-{[5-chloro-2-(pyrrolidin-1-yl)pyrimidin-4-yl]amino}-1-(2-{[2-(2,6-dioxopiperidin-3-yl)-1,3-dioxo-2,3-dihydro-1H-isoindol-5-yl]oxy}ethyl)-2-oxo-1,2-dihydroquinolin-3-yl)oxy]-N-methylacetamide] |  | 
12 |  |  | CNC(=O)COc1cc2cc(Nc3nc(N4CCC(O[C@H]5C[C@H](N6CCN(c7cc(OC)c8c(c7)C(=O)N(C7CCC(=O)NC7=O)C8=O)CC6)C5)CC4)ncc3Cl)ccc2n(C(C)C)c1=O (stereo partly shown) [Compound 379, 2-({6-[(5-chloro-2-{4-[(1r,3r)-3-{4-[2-(2,6-dioxopiperidin-3-yl)-7-methoxy-1,3-dioxo-2,3-dihydro-1H-isoindol-5-yl]piperazin-1-yl}cyclobutoxy]piperidin-1-yl}pyrimidin-4-yl)amino]-2-oxo-1-(propan-2-yl)-1,2-dihydroquinolin-3-yl}oxy)-N-methylacetamide] | 50 to 70 | < 10
13 | < 10 | 50 to 70 | CNC(=O)COc1cc2cc(Nc3nc(N4CCC(OC5CCC6(CC5)CN(c5cccc7c5CN(C5CCC(=O)NC5=O)C7=O)C6)CC4)ncc3Cl)ccc2n(C(C)C)c1=O (stereo not shown) [Compound 61, 2-{[6-({5-chloro-2-[4-({2-[2-(2,6-dioxopiperidin-3-yl)-1-oxo-2,3-dihydro-1H-isoindol-4-yl]-2-azaspiro[3.5]nonan-7-yl}oxy)piperidin-1-yl]pyrimidin-4-yl}amino)-2-oxo-1-(propan-2-yl)-1,2-dihydroquinolin-3-yl]oxy}-N-methylacetamide] |  | 
14 |  |  | CNC(=O)COc1cc2cc(Nc3nc(N4CCN(CC5CCC6(CC5)CN(c5ccc7c(c5)CN(C5CCC(=O)NC5=O)C7=O)C6)CC4)ncc3Cl)ccc2n(C(C)C)c1=O (stereo not shown) [Compound 305, 2-{[6-({5-chloro-2-[4-({2-[2-(2,6-dioxopiperidin-3-yl)-1-oxo-2,3-dihydro-1H-isoindol-5-yl]-2-azaspiro[3.5]nonan-7-yl}methyl)piperazin-1-yl]pyrimidin-4-yl}amino)-2-oxo-1-(propan-2-yl)-1,2-dihydroquinolin-3-yl]oxy}-N-methylacetamide] | 50 to 70 | < 10
15 |  |  | CNC(=O)COc1cc2cc(Nc3nc(N4CCC(O[C@H]5C[C@H](N6CC7(CCN(c8ccc9c(c8F)CN(C8CCC(=O)NC8=O)C9=O)CC7)C6)C5)CC4)ncc3Cl)ccc2n(C(C)C)c1=O (stereo partly shown) [Compound 393, 2-({6-[(5-chloro-2-{4-[(1r,3r)-3-{7-[2-(2,6-dioxopiperidin-3-yl)-4-fluoro-1-oxo-2,3-dihydro-1H-isoindol-5-yl]-2,7-diazaspiro[3.5]nonan-2-yl}cyclobutoxy]piperidin-1-yl}pyrimidin-4-yl)amino]-2-oxo-1-(propan-2-yl)-1,2-dihydroquinolin-3-yl}oxy)-N-methylacetamide] | ≥ 70 | < 10
16 |  |  | CNC(=O)COc1cc2cc(Nc3nc(N4CCC(O[C@H]5C[C@H](N6CC7(CCN7c7ccc8c(c7)CN(C7CCC(=O)NC7=O)C8=O)C6)C5)CC4)ncc3Cl)ccc2n(C(C)C)c1=O (stereo partly shown) [Compound 309, 2-({6-[(5-chloro-2-{4-[(1r,3r)-3-{1-[2-(2,6-dioxopiperidin-3-yl)-1-oxo-2,3-dihydro-1H-isoindol-5-yl]-1,6-diazaspiro[3.3]heptan-6-yl}cyclobutoxy]piperidin-1-yl}pyrimidin-4-yl)amino]-2-oxo-1-(propan-2-yl)-1,2-dihydroquinolin-3-yl}oxy)-N-methylacetamide] | 50 to 70 | < 10
